Values quoted from earlier work in US20260256672A1, “COMPOSITION COMPRISING SKIN CARE ACTIVE INGREDIENT OR CELLULOSE COMPOUND” (L'OREAL, priority 2022, published 2026).

Settings: base-ten logarithm of apparent octan-1-ol/water partition coefficient

Row | Log P | Compound
1 | −1.5 | CC(O)C[C@H]1OC[C@@H](O)[C@H](O)[C@H]1O (stereo partly drawn) [Hydroxypropyl Tetrahydropyrantriol, C-beta-D-xylopyranoside-2-hydroxpropane]
2 | −3.4 | O=C1O[C@H]([C@@H](O)CO)C(O)=C1O[C@H]1O[C@H](CO)[C@@H](O)[C@H](O)[C@H]1O [Ascorbyl Glucoside]
3 | −1.6 | NC[C@H]1CC[C@H](C(=O)O)CC1 [Tranexamic Acid]

Row | Compound | Log P
4 | NC(=O)c1cccnc1 [Niacinamide] | −0.37
